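Growth conditions: 96-well plates. Treatment: test compound, 48 hours, 5 concentrations. Analysis: linear interpolation between bracketing concentrations; unreached endpoints set to highest concentration. At the TGI there is no net growth.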

Common to all, as to assay: NCI tumour cell line growth inhibition, 48 h
The subject of experiment [1] is KM20L2 colon.
Experiment [2] deals with SNB-78 CNS.
In experiment [3] the test system is RXF-631 renal.
The subject of experiment [4] is LXFL 529 NSCLC.
The test system of experiment [5] is DMS 273 small cell lung.
Experiment [6] deals with XF 498 CNS.
The test system of experiment [7] is HOP-18 NSCLC.
Experiment [8] concerns M19-MEL melanoma.
Experiment [9] concerns P388 leukemia.
Experiment [10] deals with P388/ADR leukemia.
The subject of experiment [11] is SN12K1 renal.

As for `O=C(NO)c1coc2ccccc2c1=O`, the TGI in experiment [1], in [2], in experiment [3], in experiment [4] and in experiment [5] was above 100 µM throughout.

For the compound `CC(=O)[O-].CC(=O)[O-].O=C(N/N=C/c1cc(Cl)cc(Cl)c1[OH2+])c1ccncc1.[Co+2]`, the TGI in experiment [1] is above 100 µM.

For the compound `CC1(O)CC2C(CC1SCCO)C2(C)C` (centres undefined), the TGI in [6], in [7], in experiment [2], in [8], in experiment [4] and in experiment [5] was above 100 µM throughout.

Regarding `Cc1c(-c2cc3n(n2)C(c2cccs2)C(C#N)=C(c2ccccc2)N3)c(=O)n(-c2ccccc2)n1C` (centres undefined), the TGI in experiment [1] was above 31.6 µM; in [6], above 100 µM; in experiment [7], above 100 µM; in experiment [2], above 100 µM; in experiment [8], above 100 µM; in [9] it was above 100 µM. For the same compound, the TGI in [5], in experiment [10] and in experiment [11] was above 100 µM throughout.

Take `CC(=O)c1ccc(Oc2ccc(/C(C)=N\N=C(N)N)cc2)cc1`: the values for the TGI in experiment [1], in experiment [2] and in experiment [4] were 3.43 µM, 16.6 µM and 17.4 µM, respectively.

Take `CC(C)(C)[Si](C)(C)OCCCC#CCO`: the TGI in experiment [1], in experiment [6], in experiment [2], in [3], in experiment [4] and in experiment [5] was above 100 µM in each case.

For the compound `NC(=O)CCC(NCc1c2ccccc2[n+]([O-])c2ccccc12)C(=O)O` (centres undefined), the TGI in [1], in experiment [7], in experiment [2], in [8], in experiment [4] and in experiment [5] was above 100 µM each time.

`C=C1c2c(cc3c(c2O)c(=O)c2ccccc2n3C)OC1(C)C`: the TGI was above 100 µM in experiment [1]; 57.2 µM in [6]; above 100 µM in [7]; above 100 µM in [2]; above 100 µM in [8]; above 100 µM in [3]. Moreover, the TGI in [4] and in experiment [5] was above 100 µM throughout.
